Source: US7026296B2, “Methods of treating dry eye disorders” (Alcon, Inc., priority 2002, dated 2006)
pIC50: −log10 of the molar value.

Tests used:
[1] = tested on: IL-6 production from CEPI-17 cells; experiment: Inhibition of hyperosmolarity-induced IL-6 production from human corneal epithelial cells in vitro; assay type: cell-based; settings: Corneal epithelial cell, 1 hour pre-treatment, hypertonic KGM-HC (additional 80 mM NaCl) 6 hours, ELISA, normalized by dsDNA
Procedure: (§1) Inhibition of Hyperosmolarity-Induced Cytokine Production from Human Corneal Epithelial Cells in vitro.
(§2) The ocular tear film in dry eye is abnormally hyperosmolar, which is irritating to ocular surface cells. Treatment of human conjunctival epithelial cells with a hypertonic media elicits the production of pro-inflammatory cytokines. A selective JNK inhibitor, anthra[1,9-cd]pyrazol-6(2H)-one, was evaluated for inhibition of hyperosmolarity-induced cytokine secretion from the transformed human corneal epithelial cell line, CEPI-17.CEPI-17 cells were grown in complete isotonic Keratinocyte Growth Medium (iso KGM) and plated in 48-well plates in iso KGM without hydrocortisone (iso KGM-HC). When the cells reached confluence, they were pre-treated for 1 hour with the compound at the indicated concentration in iso KGM-HC. The cells were then stimulated by hypertonic KGM-HC for 6 hours (additional 80 mM NaCl added in iso KGM-HC) in the presence of the compound. Aliquots of the supernatants were assayed for IL-6,IL-8 by ELISA. Cytokine release was normalized by the amount of double stranded DNA (dsDNA) extracted from the cells. Percent inhibition of cytokine production was calculated by comparison with cytokine levels in vehicle-treated cells.

[2] = tested on: IL-8 production from CEPI-17 cells; experiment: Inhibition of hyperosmolarity-induced IL-8 production from human corneal epithelial cells in vitro; assay type: cell-based; settings: Corneal epithelial cell, 1 hour pre-treatment, hypertonic KGM-HC (additional 80 mM NaCl) 6 hours, ELISA, normalized by dsDNA
Procedure: as §1, §2

O=C1c2ccccc2-c2n[nH]c3cccc1c23 [SP-600125, anthra[1,9-cd]pyrazol-6(2H)-one]
pIC50 [1]: 4.90
pIC50 [2]: 5.43
